In patent publication US9138393B2, “Cosmetic compositions containing substituted azole and methods for improving the appearance of aging skin” (The Proctor & Gamble Company, priority 2013, dated 2015):

Key:
[1] = target: CYP3A4 (Homo sapiens (Human), UniProt P08684); assay: in vitro
From the text: The metabolism of retinoic acid and vitamin D in the skin is incompletely understood, but there is evidence for the involvement of CYP26A1, CYP3A4 and CYP2C8 in catalyzing the 4-hydroxylation of all-trans RA to 4-hydroxy-RA. It is believed, without being limited by theory, that CYP3A4 may be particularly important for ATRA metabolism in the skin. This is because CYP3A4 is expressed in skin, involved in RA metabolism, a CYP with one of the broadest substrate specificities of all of the known CYPs and available as a human recombinant protein in a commercial kit. Thus, a commercially available CYP3A4 assay was used as a surrogate to predict RAMBA potential in the skin.
The commercially available P450-GLO™ Assay kit (Promega Corporation, Madison Wis.) was used to screen various compounds for potential CYP activity, specifically CYP3A4A inhibition activity. CYP3A4A is thought to be among the primary CYP isoforms responsible for retinoic acid metabolism in the skin.
A commercially available P450-GLO™ Assay kit (Promega Corporation, Madison Wis.) is used to screen various compounds for CYP3A4A inhibition activity. CYP3A4A is thought to be one of the primary CYP isoforms responsible for retinoic acid metabolism in the skin.

[2] = system: ATRA 4-hydroxylase (CYP) activity; assay: in vitro; settings: pig, pH 7.4
From the text: (§1) Cytochrome P450 is a large and diverse group of enzymes that catalyze the oxidation of organic substances. […] Applicant evaluated the potential RAMBA activity of several azoles using pig liver microsomes, a rich source of CYP activity, comprising many different CYP 450 isoforms. […] As understanding in this area has progressed, a more specific CYP inhibition assay can be used to provide better predictivity of activity in human skin. Nevertheless, this assay may still be used as a general predictor of overall CYP activity.
(§2) All procedures were carried out under minimal light in order to prevent degradation of the retinoid samples.
(§3) Microsomal preparation: One lobe of fresh pig liver is obtained (e.g., at about the time of slaughter from a food-processing company) and immediately placed in ice cold 15 mM KH2PO4/250 mM sucrose (pH 7.4) and kept on ice during transportation. A 10 g sample of liver is minced and homogenized in 30 mL of homogenization buffer (15 mM KH2PO4/250 mM sucrose) using a Tekmar homoginizer or equivalent by pulsing 3 times with 20 second pulses. […] The remaining pig liver may be stored at −80° C. The homogenates from the 8 samples are pooled and centrifuged at 13,000×g for 20 minutes at 4° C. to remove crude debris. The supernatant is further centrifuged at 100,000×g for 70 minutes at 4° C. The microsomal pellets are re-suspended into 50 mL of 150 mM KH2PO4/1 mM DTT (pH 7.4) and 1 mL aliquots are stored at −80° C.
(§4) 100-150 μg of pig liver microsomal protein in 150 mM KH2PO4 is incubated at 37° C. in the presence of radiolabeled ATRA and 5 mM NADPH for 90 min. The final ATRA concentration is 1 μM, as a combination of [20-Methyl-^3H]ATRA and unlabeled ATRA. Initially, radiolabeled ATRA may be used to assist in validating the method. Once retention times of retinoid metabolites are identified, unlabeled ATRA is used for screening. Compounds tested as possible competitive substrates are added to the assay 10 min prior to the addition of ATRA. Ethanol, containing 0.1% butylated hydroxytoluene (BHT) as an antioxidant, is used to stop the reactions. For recovery of ATRA the pH of reactions are adjusted to 3.0 before extraction with 0.1N HCl. Retinoids are extracted from the protein aqueous phase with 4 mL hexane, 1 ml 100 μg/ml BHT in water (pH 3). An additional 4 mL of hexane (pH 3) is used for a second extraction. The organic extractions are pooled, evaporated to dryness using a speed vac, and resuspended in 62.5 μl acetonitrile containing 1 mg/ml BHT. Samples are analyzed by HPLC.HPLC separation of retinoids. […] Mobile phases used for gradient elution of retinoids are those of Duell et al., J. Clin. Invest. […] Mobile phase A is acetonitrile:0.02 M ammonium acetate:acetic acid (1:1:0.01) and mobile phase B is acetonitrile:0.2M ammonium acetate:acetic acid (19:1:0.008). At the start of the HPLC run, solvent A is run 100% followed by a linear gradient to solvent B at 3 minutes, a shallow gradient to 81% solvent B at 38 minutes, and 100% solvent B at 40 minutes. […] Effluent from the HPLC column flows directly into a flow-through scintillation spectrometer […]. Because of the sensitivity limitations of the β-RAM spectrometer, it is not used to quantitate peak areas but rather to confirm ATRA and ATRA 4-hydroxylase activity. Calculated peaks areas (using Millenium software—Waters Corp.) of ATRA and ATRA metabolites are used to quantify relative activity levels.

[3] = system: ATRA 4-hydroxylase (CYP) activity of pig liver microsomes; assay: In vitro ATRA 4-hydroxylase activity assay to determine CYP inhibition (pig liver microsomes); settings: pig liver microsomes
From the text: as §1, §2, §3, §4

[4] = system: facial skin; assay: Method of treatment: topical application to the face, appearance of aging skin; assay type: in vivo, human; settings: 0.55% by weight in a vehicle, entire face, one to two times a day for 8 weeks
From the text: A test subject topically applies a composition comprising 0.55% 1-phenylimidazole, by weight in a vehicle, to the entire face one to two times a day for 8 weeks.

[5] = human recombinant CYP3A4, P450-GLO kit
[6] = read-out: hit / no hit (CYP3A4 inhibition), human recombinant CYP3A4, P450-GLO kit

Sequence of CYP3A4 (P08684 whole entry): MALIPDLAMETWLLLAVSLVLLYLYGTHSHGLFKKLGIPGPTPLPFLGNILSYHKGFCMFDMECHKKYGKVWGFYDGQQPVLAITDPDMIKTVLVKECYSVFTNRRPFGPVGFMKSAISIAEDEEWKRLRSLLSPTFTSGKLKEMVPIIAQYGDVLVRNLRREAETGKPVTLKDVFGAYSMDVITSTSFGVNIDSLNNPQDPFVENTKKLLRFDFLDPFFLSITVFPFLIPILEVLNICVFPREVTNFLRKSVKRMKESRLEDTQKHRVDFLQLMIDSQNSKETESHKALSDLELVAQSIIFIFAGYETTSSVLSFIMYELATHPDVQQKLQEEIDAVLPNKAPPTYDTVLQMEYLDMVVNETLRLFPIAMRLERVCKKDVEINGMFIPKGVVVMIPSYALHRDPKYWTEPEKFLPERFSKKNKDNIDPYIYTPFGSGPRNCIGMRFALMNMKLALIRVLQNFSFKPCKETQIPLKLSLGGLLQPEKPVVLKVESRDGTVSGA

| IC50 ([1]; human, recombinant enzyme) [µM] | IC50 [1, 6] [µM] | Compound | IC50 [1, 5] [µM] | also measured |
| --- | --- | --- | --- | --- |
| < 10 | – | O=C(/C=C/C=C/c1ccc2c(c1)OCO2)N1CCCCC1 [Piperine] | – | – |
| – | > 10 | N=C(N)c1ccc(OCCCCCCOc2ccc(C(=N)N)cc2)cc1 [Hexamidine diisethionate] | > 10 | – |
| – | – | CC(C)(C(=O)c1cccnc1)c1cccnc1 [Metyrapone] | – | IC50 [1]: < 10 µM |
| > 10 | – | Clc1ncnc2[nH]cnc12 [6-Chloropurine] | – | – |
| > 10 | – | CC(NC(=O)[C@@H](N)CCC(=O)O)c1ncc[nH]1 (stereo partly shown) [Glutamylamidoethyl imidazole] | – | – |
| – | – | CCc1cccc(C)c1N(C(=O)CCl)C(C)COC (stereo not shown) [Metolachlor] | – | IC50 [1]: > 10 µM |
| – | – | c1ccc(Cn2ccnc2)cc1 [1-benzylimidazole] | – | IC50 [2]: 77.5 µM |
| > 10 | – | c1ccc(-c2n[nH]cc2-c2ccnc3ccccc23)nc1 [LY-364947] | – | – |
| > 10 | – | CC(=O)/C=C/C1=C(C)CCCC1(C)C [β-Ionone] | – | – |
| > 10 | – | CC1=N[C@H](C(=O)O)CCN1 [Ectoine] | – | – |
| – | > 10 | Cn1c(=O)c2[nH]cnc2n(C)c1=O [Theophylline] | – | – |
| – | – | c1ccc(-n2ccnc2)cc1 [1-phenylimidazole] | 1 | appearance of aging facial skin after treatment [4]: facial skin feels and appears less aged; IC50 [1]: < 10 µM; inhibitory activity in the CYP3A4 assay (in words) [1]: showed inhibitory activity; IC50 [2]: 52.5 µM; CYP inhibitory activity (in words) [3]: elicit CYP inhibitory activity |
| – | – | CC(=O)c1ccc(-n2ccnc2)cc1 [4′-(Imidazol-1 yl) acetophenome] | – | IC50 [1]: < 10 µM |
| – | > 10 | CC(=O)n1ccnc1 [1-Acetylimidazole] | > 10 | – |
| – | > 10 | C=Cn1ccnc1 [1-Vinylimidazole] | > 10 | – |
| – | – | Cc1ccc2cc3c(ccc4ccccc43)c3c2c1CC3 [Methyl- cholanthrene] | > 10 | hit / no hit (CYP3A4 inhibition) [1, 5]: Near Hit |
| > 10 | – | NCCCn1ccnc1 [N-(3-Aminopropyl) imidazole] | – | – |
| > 10 | – | CCCCc1nc(C=O)c(Cl)[nH]1 [2-Butyl-4-chloro-5-formylimidazole] | – | – |
| – | > 10 | Cc1ncc[nH]1 [2-Methylimidazole] | > 10 | – |
| – | > 10 | O=C(n1ccnc1)n1ccnc1 [1′-1-Carbonylimidazole] | > 10 | – |
| > 10 | – | CCc1ncc[nH]1 [2-Ethylimidazole] | – | – |
| – | > 10 | Clc1ccccc1-c1nc2ccccc2[nH]1 [2-(2-Chlorophenyl) benzimidazole] | > 10 | – |
| – | – | Cc1nccn1Cc1ccccc1 [1-benzyl-2-methylimidazole] | – | IC50 at 90 min [2]: 308 µM |
| – | > 10 | CCc1nc(C)c[nH]1 [2-Ethyl-4-methyl-imidazole] | > 10 | – |
| – | – | c1ccc(-c2nc[nH]c2-c2ccccc2)cc1 [4,5-diphenylimidazole] | – | IC50 at 90 min [2]: 100 µM |

| Compound | IC50 ([1]; human, recombinant enzyme) [µM] | IC50 [1, 6] [µM] | IC50 [1, 5] [µM] | also measured |
| --- | --- | --- | --- | --- |
| c1ccc(-c2ncc[nH]2)cc1 [2-phenylimidazole, 2-Phenylimidazole] | – | > 10 | > 10 | inhibitory activity in the CYP3A4 assay (in words) [1]: did not; IC50 [2]: > 500 µM; CYP inhibitory activity (in words) [3]: lacked any significant inhibitory activity |
| c1coc(-c2nc3ccccc3[nH]2)c1 [Fuberidazole] | – | > 10 | > 10 | – |
| N[C@@H](Cc1c[nH]c2ccccc12)C(=O)O [L-Tryptophan] | > 10 | – | – | – |
| c1ccc2[nH]cnc2c1 [Benzimidazole] | – | > 10 | > 10 | – |
| CCCCNC(=O)n1c(NC(=O)OC)nc2ccccc21 [Benomyl] | – | > 10 | > 10 | – |
| N[C@@H](Cc1c[nH]cn1)C(=O)O [Histidine] | > 10 | – | – | – |
| Cc1cccc(C)c1N(Cn1cccn1)C(=O)CCl [Metazachlor] | – | > 10 | > 10 | – |
| Nc1nc[nH]n1 [Amitrol] | > 10 | – | – | – |
| Cn1ccnc1 [1-Methylimidazole] | > 10 | – | – | – |
